In the supplement of paper PMC10307832:

What was measured:
Experiment in all cases: relative viability (nuclei count vs DMSO), 5 days (fraction); higher = more cells survive
Quizartinib + Trametinib = compound: CC(C)(C)c1cc(NC(=O)Nc2ccc(-c3cn4c(n3)sc3cc(OCCN5CCOCC5)ccc34)cc2)no1 [Quizartinib] + CC(=O)Nc1cccc(-n2c(=O)n(C3CC3)c(=O)c3c(Nc4ccc(I)cc4F)n(C)c(=O)c(C)c32)c1 [Trametinib] (partner 0.02 µM)
In short: (§1)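 Lung cancer cell lines, seeded in 1536-well plates, were treated the following day by pin tool with a single drug or with five library-drug doses (not always all listed) in √10 steps on top of a fixed anchor-drug dose. Cells were fixed and nuclei stained in one step after 5 days, and nuclei were counted. Relative viability is the nuclei count for treated wells divided by that for vehicle wells, reported as medians of duplicate plates.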

Quizartinib + Alpelisib = compound: CC(C)(C)c1cc(NC(=O)Nc2ccc(-c3cn4c(n3)sc3cc(OCCN5CCOCC5)ccc34)cc2)no1 [Quizartinib] + Cc1nc(NC(=O)N2CCC[C@H]2C(N)=O)sc1-c1ccnc(C(C)(C)C(F)(F)F)c1 [Alpelisib] (partner 2 µM)
In short: as §1

Quizartinib + Phenformin = compound: CC(C)(C)c1cc(NC(=O)Nc2ccc(-c3cn4c(n3)sc3cc(OCCN5CCOCC5)ccc34)cc2)no1 [Quizartinib] + N=C(N)NC(=N)NCCc1ccccc1 [Phenformin] (partner 250 µM)
In short: as §1

YM155 + Vorinostat = compound: COCC[n+]1c2c(n(Cc3cnccn3)c1C)C(=O)c1ccccc1C2=O [YM155] + O=C(CCCCCCC(=O)Nc1ccccc1)NO [Vorinostat] (partner 1 µM)
In short: as §1

Cell Line	relative viability (Quizartinib + Trametinib; first compound 0.001 µM)	relative viability (Quizartinib + Trametinib; first compound 0.003162 µM)	relative viability (Quizartinib + Trametinib; first compound 0.01 µM)	relative viability (Quizartinib + Trametinib; first compound 0.03162 µM)	relative viability (Quizartinib + Trametinib; first compound 0.1 µM)	relative viability (Quizartinib + Alpelisib; first compound 0.001 µM)	relative viability (Quizartinib + Alpelisib; first compound 0.003162 µM)	relative viability (Quizartinib + Alpelisib; first compound 0.01 µM)	relative viability (Quizartinib + Alpelisib; first compound 0.03162 µM)	relative viability (Quizartinib + Alpelisib; first compound 0.1 µM)	relative viability (Quizartinib + Phenformin; first compound 0.001 µM)	relative viability (Quizartinib + Phenformin; first compound 0.003162 µM)	relative viability (Quizartinib + Phenformin; first compound 0.01 µM)	relative viability (Quizartinib + Phenformin; first compound 0.03162 µM)	relative viability (Quizartinib + Phenformin; first compound 0.1 µM)	relative viability (YM155 + Vorinostat; first compound 0.002 µM)	relative viability (YM155 + Vorinostat; first compound 0.006325 µM)	relative viability (YM155 + Vorinostat; first compound 0.02 µM)	relative viability (YM155 + Vorinostat; first compound 0.06325 µM)
NCI-H2347	0.249	0.271	0.267	0.229	0.287	0.655	0.995	1.12	1.11	1.14	0.268	0.359	0.461	0.395	0.497	0.506	0.488	0.521	0.476
NCI-H2405	0.623	0.621	0.599	0.57	0.691	0.579	0.748	0.847	0.733	0.978	0.42	0.414	0.402	0.407	0.383	0.973	0.964	0.917	0.533
NCI-H3122	0.21	0.276	0.286	0.275	0.219	0.567	0.693	1.01	0.831	0.651	–	0.377	0.381	–	0.359	0.828	0.746	1.05	0.976
PC-3 [JPC-3]	0.672	0.754	0.705	0.663	0.643	0.953	1.01	1.14	1.02	0.998	0.453	0.466	0.469	0.481	0.506	0.746	0.889	0.855	0.74
PC-14	0.692	0.726	0.977	–	0.836	0.854	0.903	1.03	0.877	0.89	0.493	0.698	0.571	0.394	0.978	0.669	0.694	0.779	0.252
RERF-LC-KJ	0.797	0.849	0.942	0.62	0.844	0.78	0.597	0.782	0.747	0.69	0.394	0.397	0.424	0.359	0.315	0.694	0.794	0.654	0.759
SK-LU-1	0.464	0.372	0.515	0.394	0.434	0.96	0.876	1.17	0.982	0.81	0.482	0.504	0.625	0.451	0.549	0.732	0.762	0.845	0.642
SK-MES-1	0.587	0.542	0.553	0.478	0.512	0.838	0.424	1.06	0.865	0.97	0.593	0.636	0.677	–	0.612	1	1.17	1.11	0.415
SW 1573	0.594	0.47	0.711	–	0.655	0.779	0.728	0.836	0.686	0.793	0.355	0.369	0.397	–	0.367	0.698	0.731	0.603	0.0728
UMC-11	0.417	0.722	0.714	0.728	0.644	0.924	0.948	1.13	0.947	1.1	–	0.255	0.307	0.268	0.212	0.392	0.35	0.377	0.343
